Molecules are shown by their SMILES. Calls of active or inactive are those of the source. No cut-off for these calls is given here.

Data set [1] relates to Staphylococcus aureus. Description: Induction of sensitization to immune clearance towards Staphylococcus aureus USA300 LAC infected in human whole blood assessed as bacterial killing by measuring bacterial survival after 6 hrs by serial dilution method relative to control. The format is functional.
Data set [2] can be described thus: Solubility of the compound in water at 10 mg measured after 24 hrs by HPLC method. Format: physicochemical.
Data set [3] relates to Staphylococcus aureus. Description: Antibacterial activity against vancomycin-intermediate Staphylococcus aureus Mu50 infected in BALB/c mouse assessed as reduction of bacterial burden in liver at 0.4 mg, ip bid administered at 12 hrs prior to bacterial infection dosed at 12 intervals for 4.5 days. Format: functional, organism-based.

What is called solubility is the concentration that dissolves in the medium under given conditions. Regarding `CN(C/C=C/C=C/c1ccc(C(F)(F)F)cc1)Cc1ccc2c(c1)OCCO2.Cl`, the Survival in the data set on Staphylococcus aureus [1] is listed as less than 0.5%. The molecule also showed a solubility at 24 h in data set [2] of 7900 µg/mL. Also, the result in the data set with Staphylococcus aureus [3] was Active.

These data come from ChEMBL document CHEMBL4251700, “Novel Staphyloxanthin Inhibitors with Improved Potency against Multidrug Resistant Staphylococcus aureus” (ACS Med Chem Lett, 2018).
